From US10934304B2, “Spirocyclic compounds” (Recurium IP Holdings, LLC, priority 2016, dated 2021)

Columns and labels:
[1] = molecular target: ERK2 (Homo sapiens (Human), UniProt P28482); assay: Active ERK1 and ERK2 Kinase Assay (Mobility Shift Assay); type: biochemical; conditions: activated ERK2, Mobility Shift Assay
Outline: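 Mobility shift assay: compound preincubated with activated kinase 30 min at rt in 20 mM HEPES pH 7.5, 0.01% Triton X-100, 2 mM DTT. Reaction started with fluorescent substrate, ATP and metal, run 1 h at rt; activity taken as product ratio P/(P+S) after LabChip peptide separation.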

[2] = test system: A375 (melanoma) cells; assay: Proliferation Assay (CellTiter-Glo); type: cell-based; conditions: 3 days incubation, CellTiter-Glo luminescence
Outline: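 A375 cells in RPMI-1640 with 10% FBS, plated overnight, then exposed to 10-point 3-fold serial compound dilutions for 3 days at 37° C, 5% CO2. Viability read by CellTiter-Glo luminescence.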

ERK2, sequence (P28482 whole entry): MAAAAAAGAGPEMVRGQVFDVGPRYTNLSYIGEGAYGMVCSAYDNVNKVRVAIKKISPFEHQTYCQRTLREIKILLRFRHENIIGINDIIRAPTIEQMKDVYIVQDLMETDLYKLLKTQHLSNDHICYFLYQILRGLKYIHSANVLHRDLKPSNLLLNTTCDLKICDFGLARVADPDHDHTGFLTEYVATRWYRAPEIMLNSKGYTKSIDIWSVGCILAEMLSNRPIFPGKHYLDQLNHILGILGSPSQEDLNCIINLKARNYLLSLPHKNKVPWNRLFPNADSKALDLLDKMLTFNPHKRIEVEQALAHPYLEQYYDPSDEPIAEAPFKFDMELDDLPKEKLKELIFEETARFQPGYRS

| Compound | IC50 [1] [nM] | IC50 [2] [nM] | IC50 ([2]; Homo sapiens, A-375, 72 h) [nM] |
| --- | --- | --- | --- |
| Cn1cnc(-c2ccc(C3=CCN(C(=O)CN4CC[C@]5(CCN(c6ccc7[nH]nc(-c8ccc(Cl)cc8F)c7n6)C5=O)C4)CC3)cc2)n1 [Example 69] | ≤ 50 | 500 to 1000 |  |
| Cn1cnc(-c2ccc(C3=CCN(C(=O)CN4CC[C@]5(CCN(c6ccc7[nH]nc(C89CC(C8)C9)c7c6)C5=O)C4)CC3)cc2)n1 [Example 72, (S)-2-(3-(Bicyclo[1.1.1]pentan-1-yl)-1H-indazol-5-yl)-7-(2-(4-(4-(1-methyl-1H-1,2,4-triazol-3-yl)phenyl)-5,6-dihydropyridin-1(2H)-yl)-2-oxoethyl)-2,7-diazaspiro[4.4]nonan-1-one] | ≤ 50 |  | 500 to 1000 |
| Cn1cnc(-c2ccc(C3=CCN(C(=O)CN4CC[C@]5(CCN(c6ccc7[nH]nc(C89CC(C#N)(C8)C9)c7c6)C5=O)C4)CC3)cc2)n1 [Example 73, (S)-3-(5-(7-(2-(4-(4-(1-Methyl-1H-1,2,4-triazol-3-yl)phenyl)-5,6-dihydropyridin-1(2H)-yl)-2-oxoethyl)-1-oxo-2,7-diazaspiro[4.4]nonan-2-yl)-1H-indazol-3-yl)bicyclo[1.1.1]pentane-1-carbonitrile] | ≤ 50 |  | 500 to 1000 |
| CC(C)Oc1ccc(-c2n[nH]c3ccc(N4CC[C@]5(CCN(CC(=O)N6CCN(c7ccc(-c8ncn(C)n8)cn7)CC6)C5)C4=O)nc23)cn1 [Example 84] | ≤ 50 | ≤ 500 |  |
| CC(C)Oc1ccc(-c2n[nH]c3ccc(N4CC[C@]5(CCN(CC(=O)N6CC=C(c7ccc(-c8ncn(CCO)n8)cc7)CC6)C5)C4=O)nc23)cn1 [Example 89] | ≤ 50 | ≤ 500 |  |
| CC(C)c1nc2cc(-c3n[nH]c4ccc(N5CC[C@]6(CCN(CC(=O)N7CC=C(c8ccc(-c9ncn(C)n9)cc8)CC7)C6)C5=O)nc34)ccc2o1 [Example 91] | ≤ 50 | 500 to 1000 |  |
| COc1ccc(-c2n[nH]c3ccc(N4CC[C@]5(CCN(CC(=O)N6CC=C(c7ccc(-c8ncn(C)n8)cc7)CC6)C5)C4=O)nc23)cc1OC [Example 92] | ≤ 50 | ≤ 500 |  |
| COc1ccc(-c2n[nH]c3ccc(N4CC[C@]5(CCN(CC(=O)N6CC=C(c7ccc(-c8ncn(C)n8)cc7)CC6)C5)C4=O)nc23)nc1OC [Example 93] | ≤ 50 | ≤ 500 |  |

The remaining lines, values ahead:

| IC50 [1] [nM] | IC50 [2] [nM] | IC50 ([2]; Homo sapiens, A-375, 72 h) [nM] | Compound |
| --- | --- | --- | --- |
| ≤ 50 | 500 to 1000 |  | CC(C)Oc1ccc(-c2n[nH]c3ccc(N4CC[C@]5(CCN(CC(=O)N6CCC(c7ccc(-c8ncn(C)n8)cc7)CC6)C5)C4=O)nc23)cn1 [Example 71] |
| ≤ 50 | 500 to 1000 |  | COc1cnc(-c2n[nH]c3ccc(N4CC[C@]5(CCN(CC(=O)N6CCC(c7ccc(-c8ncn(C)n8)cc7)CC6)C5)C4=O)cc23)c(F)c1 [Example 74] |
| ≤ 50 | ≤ 500 |  | CC(C)Sc1ccc(-c2n[nH]c3ccc(N4CC[C@]5(CCN(CC(=O)N6CC=C(c7ccc(-c8ncn(C)n8)cc7)CC6)C5)C4=O)nc23)cn1 [Example 76] |
| ≤ 50 | ≤ 500 |  | Cn1cnc(-c2ccc(C3=CCN(C(=O)CN4CC[C@]5(CCN(c6ccc7[nH]nc(-c8ccc(OC9CCC9)nc8)c7n6)C5=O)C4)CC3)cc2)n1 [Example 77] |
| ≤ 50 | ≤ 500 |  | Cc1ccc(-c2n[nH]c3ccc(N4CC[C@]5(CCN(CC(=O)N6CCC(c7ccc(-c8ncn(C)n8)cc7)CC6)C5)C4=O)nc23)cn1 [Example 79] |
| ≤ 50 |  | ≤ 500 | Cc1ccc(-c2n[nH]c3ccc(N4CC[C@]5(CCN(CC(=O)N6CCC(c7ncc(-c8ncn(C)n8)s7)CC6)C5)C4=O)nc23)cn1 [Example 80] |
| ≤ 50 | ≤ 500 |  | CCOc1ccc(-c2n[nH]c3ccc(N4CC[C@]5(CCN(CC(=O)N6CC=C(c7ccc(-c8ncn(C)n8)cc7)CC6)C5)C4=O)nc23)cn1 [Example 81] |
| ≤ 50 | ≤ 500 |  | CC(C)Oc1ccc(-c2n[nH]c3ccc(N4CC[C@]5(CCN(CC(=O)N6CCN(c7ccc(-c8ncn(C)n8)cc7)CC6)C5)C4=O)nc23)cn1 [Example 82] |
